Test results as given in publication PMC8948292, “Combining PEGylated mito-atovaquone with MCT and Krebs cycle redox inhibitors as a potential strategy to abrogate tumor cell proliferation” (Scientific Reports, 2022).

System: MiaPaCa-2 cells
Experiment: Cell proliferation (cell confluence), IncuCyte Live-Cell Analysis System
Type: cell-based, human
Settings: for Inhibition of cell proliferation in combination with AZD-3965: combined with AZD-3965
Protocol: The following cell lines were obtained from the American Type Culture Collection (Manassas, VA), where they were regularly authenticated: MiaPaCa-2 (ATCC Cat# CRL-1420, human pancreatic cancer cells), U87MG (ATCC Cat# HTB-14, human brain cancer cells), A549 (ATCC Cat# CCL-185, lung cancer cells), and HCT-116 (ATCC Cat# CCL-247, colon cancer cells). All cell lines were grown at 37 °C in 5% carbon dioxide. MiaPaCa-2 cells were maintained in Dulbecco's Modified Eagle Medium (Thermo Fisher Scientific, Waltham, MA; Cat# 11965) supplemented with 10% fetal bovine serum. U87MG, A549, and HCT-116 cells were maintained in RPMI 1640 medium (Thermo Fisher Scientific, Cat# 11875), supplemented with 10% fetal bovine serum. All cells were stored in liquid nitrogen and used within 20 passages after thawing.
The IncuCyte Live-Cell Analysis System was used to monitor cell proliferation[3],[33],[67]. As shown in previous publications[3],[67], this imaging system is probe-free and noninvasive, and enables continuous monitoring of cell confluence over several days. The increase in the percentage of cell confluence was used as a surrogate marker of cell proliferation. In a 96-well plate, cells were plated at 1,000 cells per well in triplicates and left to adhere overnight. Cells were then treated with Mito-PEG-ATO analogs, and the cell confluency was recorded over several days in the IncuCyte Live-Cell Analysis System.

**Q.** For `CN(C)C(=N)N=C(N)N` [metformin, reference compound], which “Inhibition of cell proliferation in combination with AZD-3965” value (MiaPaCa-2 cells) is on record?
**A.** Synergistic inhibition

**Q.** For `O=C(Cc1cccc(OC(F)(F)F)c1)Nc1ccc(CCCCc2nnc(NC(=O)Cc3ccccn3)s2)nn1` [CB-839, Telaglenastat, reference compound], which IC50 (Homo sapiens, MIA PaCa-2, MiaPaCa-2 cells, inhibitor alone, control ~90% confluence, read-out: IC50 (cell proliferation) without Mito-PEG5-ATO) is on record?
**A.** 19 µM

**Q.** What about the “Inhibition of cell proliferation in combination with Mito-PEG5-ATO (combination index)” value (MiaPaCa-2 cells, combined with Mito-PEG5-ATO) of the same compound?
**A.** exhibits synergy

**Q.** For `CC(=O)N[C@@H](CS)C(=O)O` [N-acetylcysteine, reference compound], which “Restoration of cell proliferation in cells treated with Mito-PEG5-ATO” value (10 mM, cells treated with Mito-PEG5-ATO, not shown) is on record?
**A.** did not restore cell proliferation

**Q.** `[H]/N=C(/N)N/C(=N/[H])NCCc1ccccc1` [phenformin, reference compound] was tested. Which “Inhibition of cell proliferation in combination with AZD-3965” value (MiaPaCa-2 cells) did it give?
**A.** Synergistic inhibition
